Test results: patent publication US4259342A, “Antianginal treatment with azepine derivatives” (priority 1978, dated 1981)
Structures can show the parent of a compound that is named as a salt. Where two headings read alike, the source gives them in different places.

Legend:
vagotomized rats = test: heart rate lowering effect on vagotomized rats; assay type: in vivo; details: Rattus norvegicus, iv, 0.5 h, read-out: D50 (dose which lowers the heart rate by 50 beats/min.)
Method: were tested as follows with regard to their heart rate lowering effect on vagotomized rats:
The animals were vagotomized and received a tracheal cannula; a polyethylene catheter was placed into the jugular vein. For measuring the ECG, needle electrodes were clamped to the extremities. During the test the body temperature of the animals was kept constant (34° C.).
After balancing out a constant starting heart rate (determined by counting the heart beats from the ECG), the test compound was intravenously administered to the animal. 30 minutes later the type was measured again.
Each compound was tested at 3 dosages administered to each of 6 animals; only one compound and dose per animal.
The average of the 6 single values per dose (Δ heart rate in beats/min.) was determined, and the dose activity curves were prepared, from which the D50 (dose which lowers the heart rate by 50 beats/min.) was determined:

[1] = acute toxicity in mice after administration per os (Litchfield and Wilcoxon); details: mouse, in vivo, po, mice of both sexes, deaths within 14 days
Method: The acute toxicity was determined in mice of both sexes with an average body weight of 20 gm after administration per os. From the percentage of the animals which died within 14 days after the administration of various doses, the LD50 was determined according to the method of Litchfield and Wilcoxon (J. Pharmacol. exp. Ther. 96, 99 (1949): […]

[2] = system: patients with angina pectoris; test: exercise test on bicycle ergometer in patients with angina pectoris, crossover single-blind against placebo (antianginal activity); assay type: in vivo
Method: The antianginal activity of
was determined in patients with angina pectoris as follows:
11 Patients with clinical and electrocardiographic symptoms of coronary insufficiency were selected for a crossover comparative single-blind study of compound A against placebo. Only those patients were allocated to one of the 2 treatments who complained of precordial pain at the same workload on 3 different days during the run-in period. In order to avoid carry-over effects the sequence of treatment was A placebo in every patient. 30 minutes after the injection of the test substance the patients were exercised on a bicycle ergometer. They started with a workload of 25 watts, which was increased every 3 minutes by 25 watts until the onset of pain. The heart rate and the blood pressure were registered every minute. The heart rate was determined by means of an ECG; the measurement of the blood pressure was carried out according to Riva-Rocci always by the same medical assistant.
The following parameters were evaluated:
1. Time until the onset of pain
2. Heart rate at the onset of pain
3. Blood pressure at the onset of pain
4. The workload performed, resulting from the sum of the products multiplied by the watts per minute (W×min).
5. The maximum workload, which results from the watts of the last complete exercise period (lasting 3 minutes) and the watts of the next unfinished period (watts)
6. The pressure frequency product as index for the oxygen consumption, which was calculated from the product of the heart rate and of the systolic blood pressure.
Since some patients reported pain without depression of the ST segment, ST segment was not evaluated

[3] = i.v., vagotomized rats, 30 minutes after administration, 3 dosages, 6 animals each
[4] = at the moment of the highest comparable workload, 30 minutes after injection
[5] = at the onset of pain, 30 minutes after injection

Structure (SMILES): C=CCN1CCc2nc(N)oc2CC1 [B, 2-Amino-6-allyl-4,5,7,8-tetrahydro-6H-oxoazolo[5,4-d]azepine dihydrochloride]
- ED (50 beats/min) (vagotomized rats; [3]): 0.1 mg/kg

Structure (SMILES): CCN1CCc2nc(N)sc2CC1.Cl.Cl [C, 2-Amino-6-ethyl-4,5,7,8-tetrahydro-6H-thiazolo[5,4-d]azepine dihydrochloride]
- ED (50 beats/min) (vagotomized rats; [3]): 0.032 mg/kg
- LD50 at 336 h [1]: > 1500 mg/kg

Structure (SMILES): CCN1CCc2nc(N)oc2CC1.Cl.Cl [Compound A, 2-Amino-6-ethyl-4,5,7,8-tetrahydro-6H-oxazolo[5,4-d]azepine dihydrochloride]
- ED (50 beats/min) (vagotomized rats): 0.5 mg/kg
- increase of duration of exercise performance (time patients could be exercised longer) vs control ([2]; 30 minutes after injection, control 6 minutes on the average): 2 min
- reduction of heart rate at the highest comparable workload ([2]; at the highest comparable workload, 30 minutes after injection): 12 beats/min
- diastolic blood pressure at the highest comparable workload [2, 4]: unchanged
- reduction of systolic blood pressure at the highest comparable workload [2, 4]: 19 mm Hg
- diastolic blood pressure at the onset of pain [2, 5]: unchanged
- increase of heart rate at the onset of pain [2, 5]: 2 beats/min
- reduction of systolic blood pressure at the onset of pain [2, 5]: 8 mm Hg
- difference of heart rate between placebo and compound A during the last complete minute before stopping ([2]; last complete minute before stopping, direction not given): 3 beats/min
- reduction of systolic blood pressure over placebo during the last minute before stopping ([2]; last minute before stopping): 9 mm Hg
- product of pressure frequency during the last minute before stopping ([2]; last minute before stopping, placebo 313): 295
- product of pressure frequency at the highest comparable strain ([2]; moment of the highest comparable strain, placebo 310): 258
- maximum work (maximum workload) ([2]; placebo 76 watts): 87 watts
- average work performed until workload was stopped ([2]; placebo 495 W×min): 627 W×min
- O2 consumption of the heart (concluded from rate/pressure product) ([2]; summary in words): diminishes O2 consumption
- effect on duration of exercise and exercise capacity ([2]; summary in words): increases the duration of exercise and exercise capacity
- LD50 at 336 h [1]: 2210 mg/kg

Structure (SMILES): CCCN1CCc2nc(N)sc2CC1.Cl.Cl [Compound D, 2-Amino-6-n-propyl-4,5,7,8-tetrahydro-6H-thiazolo[5,4-d]azepine dihydrochloride]
- ED (50 beats/min) (vagotomized rats; [3]): 0.012 mg/kg

Structure (SMILES): C=CCN1CCc2nc(N)sc2CC1.Cl.Cl [E, 2-Amino-6-allyl-4,5,7,8-tetrahydro-6H-thiazolo[5,4-d]azepine dihydrochloride]
- ED (50 beats/min) (vagotomized rats; [3]): 0.042 mg/kg
- LD50 at 336 h [1]: 455 mg/kg

Structure (SMILES): Cl.Cl.Nc1nc2c(s1)CCN(CCO)CC2 [F, 2-Amino-6-(2-hydroxy-ethyl)-4,5,7,8-tetrahydro-6H-thiazolo[5,4-d]azepine dihydrochloride]
- ED (50 beats/min) (vagotomized rats; [3]): 0.037 mg/kg
- LD50 at 336 h [1]: ~1000 mg/kg

Structure (SMILES): Nc1nc2c(s1)CCN(Cc1ccc(Cl)cc1)CC2 [G, 2-Amino-6-(4-chloro-benzyl)-4,5,7,8-tetrahydro-6H-thiazolo[5,4-d]azepine dihydrocloride]
- ED (50 beats/min) (vagotomized rats; [3]): 1.4 mg/kg
- LD50 at 336 h [1]: 905 mg/kg
